Patent US9493446B2, “Orexin receptor antagonists which are [ortho bi-(hetero-)aryl]-[2-(meta bi-(hetero-)aryl)-pyrrolidin-1-yl]-methanone derivatives” (Actelion Pharmaceuticals Ltd, priority 2012, dated 2016)
Like-named read-outs stand apart in the source and are kept apart here.

Key:
Wistar rats = assay: Sleep effects: EEG, EMG and behavioural indices of alertness by radiotelemetry; type: in vivo; conditions: 100 mg/kg po; effects analyzed over 12 hours; compared to vehicle controls
Description: Sleep Effects: EEG, EMG and Behavioural Indices of Alertness Recorded by Radiotelemetry In Vivo in Wistar Rats.
Electroencephalography (EEG) and Electromyography (EMG) signals were measured by telemetry using TL11M2-F20-EET miniature radiotelemetric implants (Data Science Int.) with two pairs of differential leads.
Surgical implantation was performed under general anesthesia with Ketamin/Xylazin, for cranial placement of one differential pair of EEG electrodes and one pair of EMG leads inserted in either side of the muscles of the neck. After surgery, rats recovered in a thermoregulated chamber and received analgesic treatment with subcutaneous buprenorphine twice a day for 2 d. They were then housed individually and allowed to recover for a minimum of 2 weeks. Thereafter, rats—in their home cage—were placed in a ventilated sound-attenuating box, on a 12-h light/12-h dark cycle, for acclimatization before continuous EEG/EMG recordings started. The telemetric technology that we used in this study allows accurate and stress-free acquisition of biosignals in rats placed in their familiar home cage environment, with no recording leads restricting their movements. Variables analyzed included four different stages of vigilance and sleep, spontaneous activity in the home cage and body temperature. Sleep and wake stages were evaluated using a rodent scoring software (Somnologica Science) directly processing electrical biosignals on 10 s contiguous epochs. The scoring is based on frequency estimation for EEG and amplitude discrimination for EMG and locomotor activity. Using these measurements, the software determines the probability that all components within each epoch best represent active waking (AW), quiet waking (QW), non-REM-sleep (NREM) or REM-sleep (REM). The percentage of total time spent in AW, QW, NREM- and REM-sleep was calculated per 12 h light or dark period. The latency to the onset of the first significant NREM- and REM-sleep episodes and the number and duration of those episodes were also calculated. AW, QW, NREM- and REM-sleep, home cage activity and body temperature were measured at baseline for at least one total circadian cycle (12 h-night, 12 h-day) before a test compound was administered. […] All variables were subsequently recorded for 12 h following administration of the orexin receptor antagonist.

orexin-1 = orexin-1 (Homo sapiens (Human), UniProt O43613); assay: Intracellular calcium measurement (FLIPR), CHO cells expressing human orexin-1 receptor, 3 nM orexin-A; type: cell-based; conditions: read-out: IC50 OX1
Procedure, shortened: (§1)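 CHO transfectants were dye-loaded (fluo-4 AM, probenecid) and exposed to antagonist for 120 min ahead of agonist.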

human orexin-2 receptor = human orexin-2 receptor (Homo sapiens (Human), UniProt O43614); assay: Intracellular calcium measurement (FLIPR), CHO cells expressing human orexin-2 receptor, 3 nM orexin-A; type: cell-based; conditions: read-out: IC50 OX2
Procedure, shortened: as §1

[1] = Measurement of brain and systemic concentration after oral administration; type: in vivo; conditions: rat, 3 h after oral administration (100 mg/kg), n=3, male wistar rats;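 on concentration in plasma [P]: unit ng/mL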
Description: Measurement of Brain and Systemic Concentration after Oral Administration:
In order to assess brain penetration, the concentration of the compound is measured in plasma ([P]), and brain ([B]), sampled 3 h (or at different time points) following oral administration (e.g. 100 mg/kg) to male wistar rats. The compounds are formulated e.g. in 100% PEG 400. Samples are collected in the same animal at the same time point (+/−5 min). Blood is sampled from the vena cava caudalis into containers with EDTA as anticoagulant and centrifuged to yield plasma. Brain is sampled after cardiac perfusion of 10 mL NaCl 0.9% and homogenized into one volume of cold phosphate buffer (pH 7.4). All samples are extracted with MeOH and analyzed by LC-MS/MS. Concentrations are determined with the help of calibration curves.

[2] = CHO cells expressing human orexin-1 receptor, FLIPR, 3 nM orexin-A, geometric mean if determined several times
[3] = CHO cells expressing human orexin-2 receptor, FLIPR, 3 nM orexin-A, geometric mean if determined several times
[4] = brain, read-out: concentration in brain [B]
[5] = plasma, read-out: concentration in plasma [P]

Sequence of orexin-1 (O43613 whole entry): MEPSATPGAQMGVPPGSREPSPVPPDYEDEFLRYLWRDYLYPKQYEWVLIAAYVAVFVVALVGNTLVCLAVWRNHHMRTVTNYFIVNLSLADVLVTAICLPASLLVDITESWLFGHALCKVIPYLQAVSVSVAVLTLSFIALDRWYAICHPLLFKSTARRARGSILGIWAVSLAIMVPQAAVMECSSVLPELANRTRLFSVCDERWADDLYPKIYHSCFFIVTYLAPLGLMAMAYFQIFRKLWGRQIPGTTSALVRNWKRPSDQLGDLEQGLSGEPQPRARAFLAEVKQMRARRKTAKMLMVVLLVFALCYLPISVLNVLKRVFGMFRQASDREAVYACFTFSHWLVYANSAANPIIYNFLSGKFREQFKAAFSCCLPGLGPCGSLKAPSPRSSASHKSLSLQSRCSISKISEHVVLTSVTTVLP
Sequence of human orexin-2 receptor (O43614 whole entry): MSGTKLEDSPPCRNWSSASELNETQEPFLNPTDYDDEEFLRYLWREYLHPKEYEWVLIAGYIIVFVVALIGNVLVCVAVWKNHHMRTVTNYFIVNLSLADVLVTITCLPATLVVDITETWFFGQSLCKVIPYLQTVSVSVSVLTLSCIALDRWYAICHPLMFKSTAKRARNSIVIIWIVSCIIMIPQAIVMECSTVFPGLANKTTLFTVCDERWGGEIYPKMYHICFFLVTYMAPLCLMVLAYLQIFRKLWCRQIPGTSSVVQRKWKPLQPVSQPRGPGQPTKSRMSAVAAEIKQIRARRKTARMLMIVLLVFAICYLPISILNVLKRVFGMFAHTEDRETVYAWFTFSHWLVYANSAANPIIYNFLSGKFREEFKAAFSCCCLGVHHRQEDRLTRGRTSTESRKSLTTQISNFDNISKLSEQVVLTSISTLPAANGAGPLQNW

Row | Molecule | IC50 (orexin-1; [2]) | IC50 (human orexin-2 receptor; [3]) | other results
1 | Cc1cc(C(=O)N2CCC[C@H]2c2nc(-c3cccc(Cl)c3C)no2)c(-n2nccn2)cc1C [Example 95, {(S)-2-[3-(3-Chloro-2-methyl-phenyl)-[1,2,4]oxadiazol-5-yl]-pyrrolidin-1-yl}-(4,5-dimethyl-2-[1,2,3]triazol-2-yl-phenyl)-methanone] | 13 nM | 3 nM | effect on NREM sleep (Wistar rats): +11.2%; effect on REM sleep (Wistar rats): +7.8%; effect on active wake (Wistar rats): −7.3%; effect on home cage activity (Wistar rats): −20.3%; concentration at 3 h [1, 4]: 483 ng/g; concentration at 3 h [1, 5]: 309 ng/mL
2 | COc1cc(C(=O)N2CCC[C@H]2c2nc(-c3ccccc3OC(F)(F)F)no2)c(-n2nccn2)cc1C [Example 154, (5-Methoxy-4-methyl-2-[1,2,3]triazol-2-yl-phenyl)-{(S)-2-[3-(2-trifluoromethoxy-phenyl)-[1,2,4]oxadiazol-5-yl]-pyrrolidin-1-yl}-methanone] | 30 nM | 2 nM | effect on NREM sleep (Wistar rats): +7.3%; effect on REM sleep (Wistar rats): +0.9%; effect on active wake (Wistar rats): −13.9%; effect on home cage activity (Wistar rats): −26.8%; concentration at 3 h [1, 4]: 3250 ng/g; concentration at 3 h [1, 5]: 2240 ng/mL
3 | Cc1ccc(C(=O)N2CCC[C@H]2c2nnc(-c3ccccc3OC(F)(F)F)[nH]2)c(-n2nccn2)c1 [Example 502, (4-Methyl-2-[1,2,3]triazol-2-yl-phenyl)-{(S)-2-[5-(2-trifluoromethoxy-phenyl)-4H-[1,2,4]triazol-3-yl]-pyrrolidin-1-yl}-methanone] | – | – | effect on NREM sleep (Wistar rats): +24.2%; effect on REM sleep (Wistar rats): +47.0%; effect on active wake (Wistar rats): −19.4%; effect on home cage activity (Wistar rats): −47.1%; concentration at 3 h [1, 4]: 1640 ng/g; concentration at 3 h [1, 5]: 2770 ng/mL
4 | Cc1ccc(C(=O)N2CCC[C@@]2(C)c2nnc(-c3ccccc3OC(F)(F)F)[nH]2)c(-n2nccn2)c1 [compound 543, (4-Methyl-2-[1,2,3]triazol-2-yl-phenyl)-{(S)-2-methyl-2-[5-(2-trifluoromethoxy-phenyl)-4H-[1,2,4]triazol-3-yl]-pyrrolidin-1-yl}-methanone] | 10 nM | 20 nM | –
5 | Cc1cc(-n2nccn2)c(C(=O)N2CCC[C@@]2(C)c2nnc(-c3ccccc3OC(F)(F)F)[nH]2)cc1Cl [compound 545] | 4 nM | – | IC50 (human orexin-2 receptor): 8 nM
6 | Cc1cc(C(=O)N2CCC[C@@]2(C)c2nnc(-c3ccccc3OC(F)(F)F)[nH]2)c(-n2nccn2)cc1C [compound 546, (4,5-Dimethyl-2-[1,2,3]triazol-2-yl-phenyl)-{(S)-2-methyl-2-[5-(2-trifluoromethoxy-phenyl)-4H-[1,2,4]triazol-3-yl]-pyrrolidin-1-yl}-methanone] | 4 nM | 8 nM | –
7 | C[C@@]1(c2nnc(-c3ccccc3OC(F)(F)F)[nH]2)CCCN1C(=O)c1cc(Cl)ccc1-n1nccn1 [compound 547] | 25 nM | 34 nM | –
8 | Cc1ccc(C(=O)N2CCC[C@@]2(C)c2nnc(-c3ccccc3OC(F)(F)F)[nH]2)c(-c2ccccc2)c1 [compound 548, (5-Methyl-biphenyl-2-yl)-{(S)-2-methyl-2-[5-(2-trifluoromethoxy-phenyl)-4H-[1,2,4]triazol-3-yl]-pyrrolidin-1-yl}-methanone] | 35 nM | 65 nM | –
9 | Cc1ccc(-c2ccccc2)c(C(=O)N2CCC[C@@]2(C)c2nnc(-c3ccccc3OC(F)(F)F)[nH]2)c1 [compound 549, (4-Methyl-biphenyl-2-yl)-{(S)-2-methyl-2-[5-(2-trifluoromethoxy-phenyl)-4H-[1,2,4]triazol-3-yl]-pyrrolidin-1-yl}-methanone] | 31 nM | 64 nM | –
10 | Cc1ccc(-n2nccn2)c(C(=O)N2CCC[C@@]2(C)c2nnc(-c3cccc(Cl)c3C)[nH]2)c1 [compound 550] | 272 nM | 178 nM | –
11 | Cc1ccc(C(=O)N2CCC[C@@]2(C)c2nnc(-c3cccc(Cl)c3C)[nH]2)c(-n2nccn2)c1 [compound 551] | 43 nM | 24 nM | –
12 | Cc1cc(-n2nccn2)c(C(=O)N2CCC[C@@]2(C)c2nnc(-c3cccc(Cl)c3C)[nH]2)cc1Cl [compound 552] | 9 nM | 7 nM | –
13 | Cc1cc(C(=O)N2CCC[C@@]2(C)c2nnc(-c3cccc(Cl)c3C)[nH]2)c(-n2nccn2)cc1C [compound 553] | 14 nM | 6 nM | –
14 | Cc1c(Cl)cccc1-c1nnc([C@]2(C)CCCN2C(=O)c2cc(Cl)ccc2-n2nccn2)[nH]1 [compound 554] | 120 nM | – | IC50 (human orexin-2 receptor): 34 nM
15 | Cc1c(Cl)cccc1-c1nnc([C@]2(C)CCCN2C(=O)c2ccc(Cl)cc2-n2nccn2)[nH]1 [compound 555] | 27 nM | 11 nM | –
16 | Cc1ccc(-c2ccccc2)c(C(=O)N2CCC[C@@]2(C)c2nnc(-c3cccc(Cl)c3C)[nH]2)c1 [compound 556] | 870 nM | 857 nM | –
17 | Cc1ccc(C(=O)N2CCC[C@@]2(C)c2nnc(-c3cccc(Cl)c3C)[nH]2)c(-c2ccccc2)c1 [compound 557] | 292 nM | 224 nM | –
18 | (4,5-Dimethyl-2-[1,2,3]triazol-2-yl-phenyl)-{(S)-2-[5-(2-trifluoromethoxy-phenyl)-[1,2,4]oxadiazol-3-yl]-pyrrolidin-1-yl}-methanone [Example 304] | 4 nM | 3 nM | –
19 | Furan-3-yl-[(S)-2-(3-o-tolyl-[1,2,4]oxadiazol-5-yl)-pyrrolidin-1-yl]-methanone [Reference compound 6, reference compound] | – | 27 nM | IC50 (orexin-1): 21 nM
20 | Furan-3-yl-[(S)-2-(3-phenyl-[1,2,4]oxadiazol-5-yl)-pyrrolidin-1-yl]-methanone [Reference compound 4, reference compound] | – | 897 nM | IC50 (orexin-1): > 5040 nM
21 | Thiophen-2-yl-[(S)-2-(3-o-tolyl-[1,2,4]oxadiazol-5-yl)-pyrrolidin-1-yl]-methanone [Reference compound 3, reference compound] | 182 nM | – | IC50 (human orexin-2 receptor): 34 nM
22 | [3-(2-Chloro-phenyl)-5-methyl-isoxazol-4-yl]-{(S)-2-[3-(2-trifluoromethoxy-phenyl)-[1,2,4]oxadiazol-5-yl]-pyrrolidin-1-yl}-methanone [Reference compound 10, reference compound] | 1040 nM | 150 nM | –
23 | {(S)-2-[3-(3-Chloro-phenyl)-[1,2,4]oxadiazol-5-yl]-pyrrolidin-1-yl}-furan-3-yl-methanone [Reference compound 5, reference compound] | 403 nM | 554 nM | –
24 | {(S)-2-[3-(3-Chloro-phenyl)-[1,2,4]oxadiazol-5-yl]-pyrrolidin-1-yl}-thiophen-2-yl-methanone [Reference compound 2, reference compound] | 253 nM | 41 nM | –
25 | {(S)-2-[5-(3-Chloro-2-methyl-phenyl)-[1,2,4]oxadiazol-3-yl]-pyrrolidin-1-yl}-[3-(2-chloro-phenyl)-5-methyl-isoxazol-4-yl]-methanone [Reference compound 8, reference compound] | 156 nM | 74 nM | –
26 | {(S)-2-[5-(3-Chloro-2-methyl-phenyl)-[1,3,4]oxadiazol-2-yl]-pyrrolidin-1-yl}-[3-(2-chloro-phenyl)-5-methyl-isoxazol-4-yl]-methanone [Reference compound 9, reference compound] | – | 242 nM | IC50 (orexin-1): 853 nM
